# Assay results from patent US20130029989A1, “TOPICAL TREATMENTS FOR PAIN” (The Royal Institution for the Advancement of …, priority 2010, published 2013).
# How the values were obtained:
# Format in all cases: in vivo, rat
# CPIP rats [1] = experiment: Mechanical allodynia (von Frey paw withdrawal threshold) after topical ointment in CPIP rats (model of CRPS-I); settings: for effectiveness of the agent when administered topically in the combinations: apraclonidine 0.005%, clonidine 0.0075%, lisofylline 0.0078%-0.075%, pentoxifylline 0.3 or 0.6%, linsidomine 0.4%; for anti-allodynic effect (PWT to von Frey hair stimulation): single drug
# Description: Ointment type analgesic formulations containing the above-mentioned drugs were prepared according to standard pharmaceutical procedures. The ointments were formulated using a composite, water-soluble polyethylene glycol base system employing carbowax (PEG 3350) and PEG 400 in the ratio of 60:40 respectively. The water-soluble base system was selected due to its non-sticky nature. Briefly, the required amounts of the active ingredients were first weighed out and then added to the already molten base in decreasing order of their melting points, and stirred well. After uniform melting, the formulation was brought to room temperature to ensure proper solidification. A standard amount of 150 mg (mean±SEM=150.88+2.7 mg) of the ointment was used for all rat hind paw applications throughout the experimental procedure, and half this amount for mouse hind paw application.
# (§1) Chronic post-ischemia pain (CPIP) was generated following exposure to prolonged hind paw ischemia and reperfusion (Coderre et al., Pain, 112(1):94-105, 2004). Briefly, rats were anesthetized over a 3 h period with a bolus (55 mg/kg, i.p.) followed by chronic i.p. infusion of sodium pentobarbital for 2 h at a rate of 0.15 mL/h. After induction of anesthesia, a Nitrile 70 Durometer O-ring (O-rings West, Seattle, Wash.) with 5.5 mm internal diameter was placed around the rat's left hind limb proximal to the ankle joint. The tight-fitting O-rings produce a complete blockade of arterial blood flow as measured using laser Doppler flowmetry. The ring was then left in place for 3 h. The termination of sodium pentobarbital anesthesia was timed so that the rats recovered fully within 30-60 min following reperfusion. Rats were tested between 2 and 14 days post-IR injury.
# (§2) The plantar surface of the ipsilateral hind paw was tested for mechanical allodynia in CPIP and CCI rats. Nylon monofilaments were applied in either ascending (after negative response) or descending (after positive response) force as necessary to determine the filament closest to the threshold of response. Each filament was applied for 10 s or until a flexion reflex occurred. The minimum stimulus intensity was 1 g and the maximum was 15 g. Based on the response pattern, and the force of the final filament (5th stimulus after first direction change), the 50% threshold (grams) was calculated as (10[Xf+kδ])/10000 where Xf=filament number of the final von Frey hair used, k=value for the pattern of positive/negative responses and δ=mean difference in log unit between stimuli (here, δ=0.220, for more details see Chaplan et al., J. Neurosci. Methods, 53(1):55-63, 1994). Mechanical sensitivities were assessed prior to and following several pharmacological treatments.
# The topical formulations containing a nitric oxide donor, an α2-adrenergic agonist or a phosphatidic acid inhibitor were tested for their anti-allodynic effects either singly or in combination with each other in definite proportions at concentrations for single agents selected from the published literature in different animal models of pain. Accordingly, the rats received 150 mg of the respective ointment with the first half on the plantar aspect of their hind paws followed by the second half applied on the dorsal surface; in both cases by uniform gentle application using fingers.
# In separate groups of rats, formulations containing pentoxifylline or lisofylline were tested in specific drug combinations with constant percentage amounts of clonidine, linsidomine, SNAP or apraclonidine. […] Accordingly, the formulations tested in the combination trials included clonidine (0.0075% W/W) with pentoxifylline (0.3, 0.6 and 1.2% WAN), linsidomine (0.4% W/W) with pentoxifylline (0.075, 0.15 and 0.3% W/W), linsidomine (0.4% W/W) with lisofylline (0.03175, 0.0625 and 0.075% W/W), SNAP (0.0625% W/W) with lisofylline (0.008, 0.015, 0.033 and 0.063% W/W) and apraclonidine (0.005% W/W) with lisofylline (0.0078, 0.0156 and 0.0313% W/W). […]
# CPIP rats [2] = experiment: Laser Doppler post-occlusive reactive hyperemia in CPIP rats, systemic pentoxifylline; settings: 25 mg/kg i.p.
# Description: as §1, with “The termination of sodium pentobarbital anesthesia was timed so that the rats recovered fully within 30-60 min following reperfusion. Rats were tested between 2 and 14 days post-IR injury.” left out
# Plantar blood flow and post-occlusive reactive hyperemia were measured using a laser Doppler perfusion and temperature monitor (DRT4, Moor Instruments, Wilmington, Del.) to assess microvascular function (Morales et al., Microvasc. Res., 69(1-2):17-23, 2005). […] Body temperature was monitored through a rectal thermometer coupled to a heating pad (FHC, Bowdoinham, Me.), and was maintained between 37.5° C. and 39.0° C. throughout the experiment. The plantar blood flow of the ipsilateral hind paw was monitored using a laser-emitting probe placed in between the tori pads of the hind paw, along the midline. […]
# sham rats = experiment: Laser Doppler post-occlusive reactive hyperemia in sham rats, systemic pentoxifylline; settings: 25 mg/kg i.p.
# Description: Plantar blood flow and post-occlusive reactive hyperemia were measured using a laser Doppler perfusion and temperature monitor (DRT4, Moor Instruments, Wilmington, Del.) to assess microvascular function (Morales et al., Microvasc. Res., 69(1-2):17-23, 2005). Briefly, rats (n=6 for each group) were anesthetized with bolus (1 g/kg) and maintenance doses (200 mg/kg prn) of urethane, and placed in the prone position. Body temperature was monitored through a rectal thermometer coupled to a heating pad (FHC, Bowdoinham, Me.), and was maintained between 37.5° C. and 39.0° C. throughout the experiment. The plantar blood flow of the ipsilateral hind paw was monitored using a laser-emitting probe placed in between the tori pads of the hind paw, along the midline. […] At the rate of one sample per second, an initial 10 minute baseline blood flux was recorded, followed by a 2 minute occlusion induced by pressurizing and inflating a tight fitting loop of Tygon® R 3603 tubing (outside diameter=2.38 mm, inside diameter=0.79 mm, wall thickness=0.79 mm) connected to an air-filled pump-driven 60 mL syringe (Model 11, Harvard Apparatus, Montreal, QC), creating a tourniquet around the ankle joint. […] Post-occlusive reactive hyperemia was monitored by continuously sampling flux at the rate of 1/sec for 2 min following the onset of reperfusion. […]
# CPIP rats [3] = experiment: Mechanical allodynia (von Frey PWT) in CPIP rats after systemic pentoxifylline; settings: vs vehicle
# Description: as §1, with “The termination of sodium pentobarbital anesthesia was timed so that the rats recovered fully within 30-60 min following reperfusion. Rats were tested between 2 and 14 days post-IR injury.” left out
# as §2, with “Nylon monofilaments were applied in either ascending (after negative response) or descending (after positive response) force as necessary to determine the filament closest to the threshold of response. Each filament was applied for 10 s or until a flexion reflex occurred. The minimum stimulus intensity was 1 g and the maximum was 15 g.” left out
smiles,measurement,setting,value
C[C@@H](O)CCCCn1c(=O)c2c(ncn2C)n(C)c1=O [lisofylline],effectiveness of the agent when administered topically in the combinations,CPIP rats [1],highly effective
same,anti-allodynic effect (PWT to von Frey hair stimulation),"CPIP rats [1]; topical ipsilateral, lowest concentration 0.063% W/W",inactive
same,anti-allodynic effect (PWT to von Frey hair stimulation),"CPIP rats [1]; topical ipsilateral, the three higher concentrations (0.09, 0.125 and 0.25% W/W)",only the lowest concentration (0.063% W/W) was observed to be inactive
Nc1cc(Cl)c(N=C2NCCN2)c(Cl)c1 [apraclonidine],effectiveness of the agent when administered topically in the combinations,CPIP rats [1],highly effective
same,anti-allodynic effect (PWT to von Frey hair stimulation),"CPIP rats [1]; topical ipsilateral, 0.005% W/W (lowest)",inactive
same,anti-allodynic effect (PWT to von Frey hair stimulation),"CPIP rats [1]; topical ipsilateral, all concentrations except the lowest (0.01, 0.02 and 0.04% W/W)",effective against mechanical allodynia
[NH-]c1c[n+](N2CCOCC2)no1 [linsidomine],effectiveness of the agent when administered topically in the combinations,CPIP rats [1],highly effective
same,anti-allodynic effect (PWT to von Frey hair stimulation),"CPIP rats [1]; topical ipsilateral, 0.4% W/W",inactive
same,anti-allodynic effect (PWT to von Frey hair stimulation),"CPIP rats [1]; topical ipsilateral, 0.8% W/W, post drug vs pre-drug",significantly different from their pre-drug values
same,anti-allodynic effect (PWT to von Frey hair stimulation),"CPIP rats [1]; topical ipsilateral, 1.6% W/W, post drug vs pre-drug",significantly different from their pre-drug values
Clc1cccc(Cl)c1N=C1NCCN1 [clonidine],effectiveness of the agent when administered topically in the combinations,CPIP rats [1],highly effective
same,anti-allodynic effect (PWT to von Frey hair stimulation),"CPIP rats [1]; topical ipsilateral, 0.0075% W/W",inactive
same,anti-allodynic effect (PWT to von Frey hair stimulation),"CPIP rats [1]; topical ipsilateral, 0.03% W/W",significant anti-allodynic effects
same,anti-allodynic effect (PWT to von Frey hair stimulation),"CPIP rats [1]; topical ipsilateral, 0.06% W/W",significant anti-allodynic effects
"CC(=O)N[C@H](C(=O)O)C(C)(C)SN=O [SNAP, S-nitroso-N-acetyl-penicillamine]",anti-allodynic effect (PWT to von Frey hair stimulation),"CPIP rats [1]; topical ipsilateral, 0.0625% W/W (lowest)",inactive
same,anti-allodynic effect (PWT to von Frey hair stimulation),"CPIP rats [1]; topical ipsilateral, all concentrations except the lowest (0.125, 0.25 and 0.5% W/W)",significant effects
CC(=O)CCCCn1c(=O)c2c(ncn2C)n(C)c1=O [pentoxifylline],effectiveness of the agent when administered topically in the combinations,CPIP rats [1],highly effective
same,anti-allodynic effect (PWT to von Frey hair stimulation),"CPIP rats [1]; topical ipsilateral hind paw, 5% W/W, 45 min post-application",significantly attenuated mechanical allodynia
same,anti-allodynic effect (PWT to von Frey hair stimulation),"CPIP rats [1]; topical ipsilateral, 0.6% W/W",devoid of any effect
same,anti-allodynic effect (PWT to von Frey hair stimulation),"CPIP rats [1]; topical ipsilateral, 1.2% W/W",devoid of any effect
same,effect on delayed post-occlusive reactive hyperemia (microvascular dysfunction),CPIP rats [2],reversed
same,effect on normal post-occlusive reactive hyperemia,sham rats,no effect
same,allodynia (PWT to von Frey hair stimulation),CPIP rats [3]; 25 mg/kg,attenuated allodynia
same,allodynia (PWT to von Frey hair stimulation),CPIP rats [3]; 50 mg/kg,attenuated allodynia
